Assay results from EP4644375A1, “SUBSTITUTED HYDROQUINOLINES FOR THE TREATMENT OF GLIOBLASTOMA MULTIFORME” (Molius Saglik Teknolojileri Anonim Sirketi, priority 2024, dated 2025).
“Also recorded” adds a separate entry of the source.

Tests used:
[1] = system: U87-MG human glioma cell; experiment: Cell proliferation analysis (MTT); format: cell-based; conditions: for activity at 10 µM / inhibition at 10 µM: Homo sapiens, U-87 MG, 48 h, two days, MTT
[2] = system: U138-MG human glioma cell; experiment: Cell proliferation analysis (MTT); format: cell-based; conditions: for activity at 10 µM / inhibition at 10 µM: Homo sapiens, 48 h, two days, MTT
[3] = system: GBM xenograft rat model; experiment: In vivo GBM rat model: survival; conditions: GBM rats, 30 mg/kg oral gavage once daily for 5 days, 14th to 28th day, compared to untreated GBM rats
Protocol: An in Vivo study was performed to assess the therapeutic potential of TR-G002, TR-G045, TR-G053, TR-G066, TR-G071 and TR-G091 in the GBM xenograft rat model when administered orally by gavage for five consecutive days. 152 female rats of the Sprague Dawley strain were allocated to the study. Six groups of sixteen females were given dose of 30 mg/kg of the respective target compounds. […] The study design can be seen in Fig. 11 and Table 10.
Female Sprague Dawley rats (age: 6-8 weeks; weight: 255-310 g; ATADEM, Erzurum, Turkey) were utilized in the study. Rats underwent anaesthesia with 5% isoflurane, maintained at 2% isoflurane (1 L/min oxygen), and were positioned in a stereotactic frame for cell implantation (Stoelting Co., IL). […] A burr hole was drilled 1-mm anterior and 3-mm lateral to the right bregma. A microsyringe (Hamilton 1700 series) containing 5×10^4 U87-MG cells suspended in 5 µL of medium at 37 °C was advanced to a depth of 4 mm into the brain. The cells were injected at a rate of 3 µL/ min. Bone wax was used to fill the burr hole to prevent cell suspension reflux. The incision was sutured, and 1 mL of Meloxicam (5 mg/mL; Metacam, Boehringer Ingelheim Vetmedica, Ingelheim, Germany) was administered via a subcutaneous injection.
Fourteen days after inoculation, tumor development in rats was visualized and confirmed through magnetic resonance imaging (MRI). Rats confirmed to have developed tumors were then distributed into six different groups for treatment. […] 9 days after the final treatment dose, the rats underwent another MRI scan and blood and brain samples were taken under anaesthesia.

[4] = Peripheral blood micronucleus assay; format: in vivo, Rat; conditions: for MN frequency: GBM rats, 30 mg/kg oral, 5 days, 1000 cells per animal evaluated
Protocol: Blood smears were made on clean microscope slides, allowed to air-dry, treated with methanol for fixation, and then stained with Giemsa (10% in 0.1 mM of sodium phosphate buffer, pH 6.8) for 10 min. After washing with PBS, the slides were examined under a light microscope. The frequencies of micronuclei (MN) were calculated by evaluating 1000 cells per animal.

C=Cc1ccc(COc2ccc3c(c2)CCC(=O)N3)cc1 [TR-G053, 6-((4-vinylbenzyl)oxy)-3,4-dihydroquinolin-2(1H)-one]
lowest cell proliferation [1]: 42%
activity at 10 µM [1]: 42%
inhibition at 10 µM [1]: 58%
top 5 target compounds whose treatment resulted in the lowest proliferation ([1]; ranking): top 5
activity at 10 µM [2]: 53%
inhibition at 10 µM [2]: 47%
survival [3]: prolonged survival
MN frequency [4]: 9.67 ± 1.21
MN frequency (comparison) ([4]; treated GBM rats): lowest MN frequency

CC(C)CCOc1ccc2c(c1)CCC(=O)N2 [TR-G002, 6-(isopentyloxy)-3,4-dihydroquinolin-2(1H)-one]
activity at 10 µM [1]: 48%
inhibition at 10 µM [1]: 52%
activity at 10 µM [2]: 52%
inhibition at 10 µM [2]: 48%
survival ([3]; 30 mg/kg): significantly improved survival; also recorded: prolonged survival
MN frequency [4]: 11.62 ± 2.34

O=C(COc1ccc2c(c1)CCC(=O)N2)N/N=C/c1cnc(-c2ccc(Cl)cc2)nc1 [TR-G066, (E)-N'-((2-(4-chlorophenyl)pyrimidin-5-yl)methylene)-2-((2-oxo-1,2,3,4-tetrahydroquinolin-6-yl)oxy)acetohydrazide]
inhibition at 10 µM [1]: 33%
lowest cell proliferation [2]: 39%
inhibition at 10 µM [2]: 62%
survival ([3]; 30 mg/kg): significantly improved survival; also recorded: highest survival; also recorded: prolonged survival
MN frequency [4]: 10.91 ± 1.89

O=C1CCc2cc(OS(=O)(=O)c3cccc4ccccc34)ccc2N1 [TR-G045, 2-oxo-1,2,3,4-tetrahydroquinolin-6-yl naphthalene-1-sulfonate]
activity at 10 µM [1]: 71%
inhibition at 10 µM [1]: 29%
activity at 10 µM [2]: 71%
inhibition at 10 µM [2]: 30%
survival ([3]; 30 mg/kg): significantly improved survival; also recorded: prolonged survival
MN frequency [4]: 12.05 ± 1.78

C=CCOC(=O)COc1ccc2c(c1)CCC(=O)N2 [TR-G071, Allyl 2-((2-oxo-1,2,3,4-tetrahydroquinolin-6-yl)oxy)acetate]
activity at 10 µM [1]: 97%
inhibition at 10 µM [1]: 3%
activity at 10 µM [2]: 100%
inhibition at 10 µM [2]: 0%
survival [3]: prolonged survival
MN frequency [4]: 12.43 ± 2.09

COc1cc(NC(=O)COc2ccc3c(c2)CCC(=O)N3)cc(OC)c1 [TR-G091, N-(3,5-dimethoxyphenyl)-2-((2-oxo-1,2,3,4-tetrahydroquinolin-6-yl)oxy)acetamide]
activity at 10 µM [1]: 101%
inhibition at 10 µM [1]: -1%
activity at 10 µM [2]: 86%
inhibition at 10 µM [2]: 14%
survival [3]: prolonged survival
MN frequency [4]: 11.65 ± 2.30
